Data reported in patent publication US8101389B2, “Bacterial glutamine synthetases and methods of use” (Athenix Corp, priority 2006, dated 2012).

What was measured:
E. coli cells [1] = test: Growth of E. coli transformants on M63 plates containing glufosinate; assay type: cell-based; conditions: for growth on glufosinate minimal M63+ agar media: 2, 10, 20, 50 and 100 mM glufosinate, DH5a E. coli cells
Protocol: To reconfirm that TKH2 and TKH3 confer resistance to 20 mM glufosinate, the purified plasmids were retransformed into DH5α cells. pUC18 was retransformed as a negative control. The transformation mixes were plated directly on M63 minimal plates with or without 20 mM glufosinate.
(§1) Mutants of the bacterial glutamine synthetase gene ags1 (SEQ ID NO:1) were created by error-prone mutagenesis using the GENEMORPH® Random Mutagenesis kit, and also using oligo-directed mutagenesis as known in the art. However, many methods are available for creating libraries of mutants. The resulting mutants were cloned into a pUC19 vector, electroporated into either XL-1 or DH5 alpha E. coli cells, and selected for growth on M63+ agar media containing antibiotic and 2, 10, or 20 mM glufosinate. Twenty-two clones were identified as growing on 20 mM glufosinate, and picked for further analysis.
(§2) ags1m2 was mutagenized by error-prone mutagenesis using GENEMORPH® II Random Mutagenesis kit (Stratagene) according to manufacturer's instructions. Mutagenized PCR product was digested with Sac I and Hind III, and ligated into a pUC vector, similarly digested with Sac I and Hind III. Ligations were transformed into E. coli cells, and plated onto M63+ plates containing antibiotic, and 125 mM glufosinate. Clones growing on 125 mM glufosinate plates were retested on 200 mM glufosinate plates, and compared to similar platings of ags1m1 and ags1m2. […] The DNA sequence of the ags open reading frame in pAX3439 was sequenced, and the gene designated as ags1m16. The DNA sequence of ags1m16 is represented herein as SEQ ID NO:31, and the amino acid sequence is represented herein as SEQ ID NO:32. AGS1m16 differs from AGS1m2 at a single amino acid at position H212 of the protein, which is modified from Histidine (‘H’) to Asparagine (‘N’), and contains a total of five amino acid changes relative to the wild-type AGS1 (see FIG. 1 and Table 3).
Clones expressing AGS1m17, AGS1m18, AGS1m19, or AGS1m20 were all found to be able to grow on plates containing 375 mM glufosinate, whereas no growth of clones expressing AGS1m16 was observed on plates containing 375 mM glufosinate.

N[C@@H](CCC(=O)O)C(=O)O [2] = test: enzymatic assay, kinetics of wild-type AGS1; assay type: biochemical, Serratia marcescens; conditions: other: Table 4
Text: (§3) ags1m1 (pAX3421) and ags1m2 (pAX3422) were subcloned into E. coli expression vector pRSF1B (Invitrogen) so as to create an N-terminus encoding a 6Xhis tag, purified and characterized kinetically.
(§4) ags1m21 (SEQ ID NO:41) encodes the AGS1m21 protein (SEQ ID NO:42). AGS1m21 is a variant of AGS1 that contains a similar amino acid change identified in other variants (V214M), as well as two novel mutations (N160S and G167R). This enzyme was expressed in E. coli, purified, and the kinetic values Km(glutamate) and Ki(glufosinate) of the variant measured by enzymatic assay.
(§5) The unmodified enzyme (AGS1) was compared to AGS1(AD-) and AGS1m17(AD-) by carrying out enzymatic assays on both enzymes following purification from E. coli. A glutamine synthetase enzyme from E. coli (GlnA) was also tested.

E. coli cells [3] = test: Growth of E. coli transformants on M63 plates containing glufosinate; assay type: cell-based; conditions: 50 mM glyphosate (so in the source); versus the other variants except AGS1m16
ags1 mutant E. coli = test: Complementation of a glutamine synthase mutant; assay type: cell-based
Text: Clones containing ags1m1 (pAX3421) and ags1m2 (pAX3422) were selected for further work.

[4] = system: ags1 glutamine synthetase enzyme; test: Enzymatic activity of purified 6Xhis-tagged glutamine synthetases with and without glufosinate; assay type: biochemical, Serratia marcescens; conditions: for enzymatic activity compared with wild type AGS1: 5 minute assay, absence of glufosinate
Text: as §3

N[C@@H](CCC(=O)O)C(=O)O [5] = test: enzymatic assay, kinetics of AGS1m21; assay type: biochemical, Serratia marcescens; conditions: other: Table 4
Text: as §4

[6] = system: E. coli cells with AGS1 variant AGS1m4 (pAX3428), A151T, V214M, S276Y, SEQ ID NO:10; test: growth of E. coli on herbicide plates, ags1m4; assay type: cell-based; conditions: than the other variants, except AGS1m16
Text: Mutants of the bacterial glutamine synthetase gene ags1 (SEQ ID NO:1) were created by error-prone mutagenesis using the GENEMORPH® Random Mutagenesis kit, and also using oligo-directed mutagenesis as known in the art. However, many methods are available for creating libraries of mutants. […]

[7] = system: E. coli cells with AGS1 variant AGS1m2 (pAX3422), F81S, P185S, G218S, I303N, SEQ ID NO:6; test: growth of E. coli on herbicide plates, ags1m2; assay type: cell-based; conditions: 50 mM glyphosate; than the other variants, except AGS1m16
Protocol: as §1
as §2, with “AGS1m16 differs from AGS1m2 at a single amino acid at position H212 of the protein, which is modified from Histidine (‘H’) to Asparagine (‘N’), and contains a total of five amino acid changes relative to the wild-type AGS1 (see FIG. 1 and Table 3).” left out

[8] = system: pea leaf glutamine synthetase; conditions: Leason et al. (1982); cited from earlier work
N[C@@H](CCC(=O)O)C(=O)O [9] = test: enzymatic assay, kinetics of AGS1(AD-); assay type: biochemical, Serratia marcescens; conditions: other: Table 5
Protocol: ags1(ad-) (SEQ ID NO:43) encoding the AGS1(AD-) protein (SEQ ID NO:44), is a variant of ags1 in which the putative adenylylation site has been removed by mutating the tyrosine at position 398 of AGS1 to a phenylalanine by site directed mutagenesis.
as §5

N[C@@H](CCC(=O)O)C(=O)O [10] = test: enzymatic assay, kinetics of AGS1m17(AD-); assay type: biochemical, Serratia marcescens; conditions: other: Table 5
Protocol: ags1m17(ad-) (SEQ ID NO:45) encoding the AGS1m17(AD-) protein (SEQ ID NO:46), is a variant of ags1m17 in which the putative adenylylation site has been removed by mutating the tyrosine at position 398 of AGS1 to a phenylalanine by site directed mutagenesis.
as §5

maize = test: Leaf protein content of T0 transgenic maize plants (Bradford assay); assay type: in vivo
Text: synags1m16 (SEQ ID NO:47) is an alternate DNA sequence that encodes the AGS1m16 protein (SEQ ID NO:32). synags1m16 was cloned into a shuttle vector to guide overexpression of AGS1m16 in maize. The vector places overexpression of synags1m16 under the control of the Trp5 promoter (U.S. application Ser. No. 11/377,318, filed Mar. 16, 2006 and herein incorporated by reference in its entirety).
Nine transgenic maize plants containing ags1m16 were generated. Protein expression of the AGS1m16 protein was confirmed by Western blot for each of these events.
Nitrogen use efficiency was evaluated for these events by determining the protein content of leaf samples isolated from the T0 plants after four weeks of growth in the greenhouse.
The protein in leaf samples was quantified as follows: Fifty milligrams of leaf material (fresh weight, no midrib) were freeze-dried for dry weight determination. The dehydrated leaf tissue was then ground in the presence of fresh Milli Q water using a MiniBeadbeater-96™ and 2.3 mm stainless-steel beads. The ground leaf tissue was filtered through a 0.45 μm Polyvinylidene Fluoride (PVDF) filter. Bio-Rad Protein Dye was added to leaf samples diluted in water, and a Bradford protein assay was performed and read in the spectrophotometer at 595 nm vs. internal protein standards included in the assay. […]

In the case of “ags1m12: ags1 variant V207I, V214M; SEQ ID NO:23/24”, the “growth on glufosinate minimal M63+ agar media” value (E. coli cells [1]) is reported as “grow on 2, 10, 20, 50, and 100 mM glufosinate”.
In the case of “Serratia marcescens ATX 20345 glutamine synthetase AGS1, wild type, SEQ ID NO:2 (Serratia marcescens)”, the Km (N[C@@H](CCC(=O)O)C(=O)O [2]) is reported as 3.4 mM, the Vmax (N[C@@H](CCC(=O)O)C(=O)O [2]) is reported as 0.10 nmol/min/µg and the kcat (N[C@@H](CCC(=O)O)C(=O)O [2]) is reported as 0.08 s⁻¹.
In the case of “ags1m14: ags1 variant V150M, D166N, V214M, G289S, A420V; SEQ ID NO:27/28”, the “growth on glufosinate minimal M63+ agar media” value (E. coli cells [1]) is reported as “grow on 2, 10, 20, 50, and 100 mM glufosinate”.
With “ags1m4: ags1 variant A151T, V214M, S276Y; SEQ ID NO:9/10” the “speed of colony growth on 50 mM glyphosate” value (from here on “speed of colony growth”) (E. coli cells [3]) was “grow more quickly”.
With “ags1m2: ags1 variant F81S, P185S, G218S, I303N; SEQ ID NO:5/6” the “speed of colony growth” value (E. coli cells [3]) was “grow more quickly”, the “complementation of ags1 mutant E. coli” value (ags1 mutant E. coli) was “complement ags1 mutant E. coli” and the “enzymatic activity compared with wild type AGS1” value [4] was “relatively little enzymatic activity”. The enzymatic reaction overnight ([4]; overnight) was “appeared to go to completion overnight”.
Compound “Serratia marcescens glutamine synthetase AGS1 variant AGS1m21, N160S, G167R, V214M, SEQ ID NO:42 (Serratia marcescens; G167R/N160S/V214M)” has a Km (N[C@@H](CCC(=O)O)C(=O)O [5]) of 12.0 mM.
With “ags1m1: glufosinate resistant ags1 variant V39I, V214M; SEQ ID NO:3/4” the “complementation of ags1 mutant E. coli” value (ags1 mutant E. coli) was “complement ags1 mutant E. coli”, the “growth rate in complementation of ags1 mutant E. coli” value (ags1 mutant E. coli; comparison of ags1m1 with ags1m2) was “growing at a faster rate than ags1m2” and the “growth on glufosinate minimal M63+ agar media” value (E. coli cells [1]) was “grow on 2, 10, 20, 50, and 100 mM glufosinate”. For the same compound, the “enzymatic activity compared with wild type AGS1” value [4] was “indistinguishable from wild type enzyme”.
For O=C(O)CNCP(=O)(O)O [glyphosate], the “colony growth on 50 mM glyphosate versus other variants” value [6] was “grow more quickly” and the “colony growth on 50 mM glyphosate versus other variants” value [7] was “grow more quickly”.
For CS(=N)(=O)CCC(N)C(=O)O (stereo not drawn) [Methione sulfoximine (MSO), Methione sulfoximine], the “inhibition of pea leaf glutamine synthetase” value [8] is given as “mixed competitive inhibitor”.
With “ags1m11: ags1 variant G56A, V214E; SEQ ID NO:21/22” the “speed of colony growth” value (E. coli cells [3]) was “grow more quickly” and the “growth on glufosinate minimal M63+ agar media” value (E. coli cells [1]) was “grow on 2, 10, 20, 50, and 100 mM glufosinate”.
“Serratia marcescens glutamine synthetase AGS1 variant AGS1(AD-), tyrosine 398 to phenylalanine, SEQ ID NO:44 (Serratia marcescens; Y398F)” showed a Km (N[C@@H](CCC(=O)O)C(=O)O [9]) of 3.4 mM.
Work on “Serratia marcescens glutamine synthetase AGS1 variant AGS1m17(AD-), F81S, P185S, H212T, V214A, G218S, I303N plus tyrosine 398 to phenylalanine, SEQ ID NO:46 (Serratia marcescens; F81S/G218S/H212T/I303N/P185S/V214A/Y398F)” yielded a Km (N[C@@H](CCC(=O)O)C(=O)O [10]) of 14.1 mM.
In the case of “ags1m16: ags1 variant F81S, P185S, H212N, G218S, I303N; SEQ ID NO:31/32”, the “resistance conferred upon E. coli, compared among variants” value (E. coli cells [1]) is reported as “most resistance”, the “growth on 200 mM glufosinate plates” value (E. coli cells [1]; M63+ plates, 200 mM glufosinate) is reported as “ability to grow on 200 mM glufosinate plates” and the “Total protein, Avg.” value (maize; average of nine ags1m16 events) is reported as 16.8 mg/g dry. For the same compound, the “higher protein content than the control plants” value (maize; average, versus control plants without ags1m16) was 24%.
In the case of “ags1m7: ags1 variant G168C, V214M, K395R; SEQ ID NO:13/14”, the “growth on glufosinate minimal M63+ agar media” value (E. coli cells [1]) is reported as “grow on 2, 10, 20, 50, and 100 mM glufosinate”.
